Columns and labels:
CD39 = CD39 (Homo sapiens, UniProt P49961); assay: Selectivity panel (Table 3); format: biochemical
LSD1 = LSD1 (Homo sapiens, UniProt O60341); assay: Selectivity panel (Table 3); format: biochemical

Sequence of CD39 (P49961 whole entry, species assumed): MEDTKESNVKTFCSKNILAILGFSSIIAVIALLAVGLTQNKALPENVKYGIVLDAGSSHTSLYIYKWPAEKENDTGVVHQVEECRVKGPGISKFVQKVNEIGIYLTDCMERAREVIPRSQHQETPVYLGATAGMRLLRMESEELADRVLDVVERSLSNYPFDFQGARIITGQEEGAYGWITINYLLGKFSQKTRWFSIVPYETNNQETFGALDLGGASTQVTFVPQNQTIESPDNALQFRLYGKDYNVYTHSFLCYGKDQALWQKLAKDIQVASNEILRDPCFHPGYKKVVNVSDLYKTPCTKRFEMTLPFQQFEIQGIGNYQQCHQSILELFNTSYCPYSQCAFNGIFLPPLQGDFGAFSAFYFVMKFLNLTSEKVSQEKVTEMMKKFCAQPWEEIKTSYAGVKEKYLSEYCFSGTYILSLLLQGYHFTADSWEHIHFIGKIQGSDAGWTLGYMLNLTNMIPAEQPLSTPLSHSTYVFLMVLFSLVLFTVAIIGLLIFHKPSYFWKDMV

For `Cc1c(F)c(N)cc(C(=O)Nc2cc(-n3cc(C(=O)N4CCN(C)CC4)nn3)c(F)cc2N2C[C@@H](C)N(C)[C@@H](C)C2)c1Cl` [HYBI-084, 5-amino-2-chloro-4-fluoro-N-(4-fluoro-5-(4-(4-methylpiperazine-1-carbonyl)-1H-1,2,3-triazol-1-yl)-2-((3S,5R)-3,4,5-trimethylpiperazin-1-yl)phenyl)-3-methylbenzamide], the IC50 (CD39) was > 1 µM and the IC50 (LSD1) was > 1 µM.

Source: patent publication US20230293539A1, “MLL1-WDR5 PROTEIN-PROTEIN INTERACTION INHIBITOR COMPOUNDS AND USES THEREOF” (HUYABIO International, LLC, priority 2022, published 2023)
